We go through one molecule from patent US20260265220A1, “GALPHA12 INHIBITORS AND METHODS USING SAME” (RUTGERS, THE STATE UNIVERSITY OF NEW JERSEY, priority 2022, published 2026).

Holding throughout (assay): Eurofins in vitro kinase activity assay
What all share (type): biochemical

One assay addresses T1, IGF-1R(h) (Homo sapiens, UniProt P08069).
T1 construct: purchased Eurofins
To be noted: read-out: IGF-1R(h) kinase activity (human kinase inhibition data). The protocol:
(§1) Using the Eurofins™ platform, a kinase activity assay was performed to identify human kinases inhibited by compound 1. To determine the effects of the compound on kinase activity, varying concentrations of compound 1 (1, 10 and 100 μM) were used with one technical replicate in a standard in vitro kinase activation assay.
(§2) This platform was used to determine the effects of compound 1 on the activity of 113 unique human kinases. Thresholds for kinase activity of interest was set at less than or equal to 60% […] (i.e., for antagonists) or enhanced activity at or above 140% (i.e., for agonists). Further, the validity of the results were confirmed by the occurrence of a dose-dependent response.

The target of the next assay is T2, ATR/ATRIP(h) (Homo sapiens, UniProt Q13535).
T2 construct: purchased Eurofins
To be noted: read-out: ATR/ATRIP(h) kinase activity (human kinase inhibition data). The protocol: as §1, §2

The next assay deals with T3, MAPKAP-K2(h) (Homo sapiens, UniProt P49137).
T3 construct: purchased Eurofins
T3 sequence (P49137 whole entry): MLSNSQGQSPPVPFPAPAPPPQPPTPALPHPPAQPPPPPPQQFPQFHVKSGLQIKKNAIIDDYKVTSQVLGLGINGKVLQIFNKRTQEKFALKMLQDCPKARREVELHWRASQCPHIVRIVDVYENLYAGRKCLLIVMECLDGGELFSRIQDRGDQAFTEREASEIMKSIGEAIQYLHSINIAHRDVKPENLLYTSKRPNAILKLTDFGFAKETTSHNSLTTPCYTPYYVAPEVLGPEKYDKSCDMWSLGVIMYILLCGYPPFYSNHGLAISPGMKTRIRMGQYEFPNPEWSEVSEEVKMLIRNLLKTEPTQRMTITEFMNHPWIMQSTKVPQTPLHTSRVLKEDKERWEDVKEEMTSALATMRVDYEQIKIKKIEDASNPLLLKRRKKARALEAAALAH
The protocol:
as §1, §2

The target of a further assay is T4, TrkA(h) (Homo sapiens, UniProt P04629).
T4 construct: purchased Eurofins
T4 sequence (P04629 33-796): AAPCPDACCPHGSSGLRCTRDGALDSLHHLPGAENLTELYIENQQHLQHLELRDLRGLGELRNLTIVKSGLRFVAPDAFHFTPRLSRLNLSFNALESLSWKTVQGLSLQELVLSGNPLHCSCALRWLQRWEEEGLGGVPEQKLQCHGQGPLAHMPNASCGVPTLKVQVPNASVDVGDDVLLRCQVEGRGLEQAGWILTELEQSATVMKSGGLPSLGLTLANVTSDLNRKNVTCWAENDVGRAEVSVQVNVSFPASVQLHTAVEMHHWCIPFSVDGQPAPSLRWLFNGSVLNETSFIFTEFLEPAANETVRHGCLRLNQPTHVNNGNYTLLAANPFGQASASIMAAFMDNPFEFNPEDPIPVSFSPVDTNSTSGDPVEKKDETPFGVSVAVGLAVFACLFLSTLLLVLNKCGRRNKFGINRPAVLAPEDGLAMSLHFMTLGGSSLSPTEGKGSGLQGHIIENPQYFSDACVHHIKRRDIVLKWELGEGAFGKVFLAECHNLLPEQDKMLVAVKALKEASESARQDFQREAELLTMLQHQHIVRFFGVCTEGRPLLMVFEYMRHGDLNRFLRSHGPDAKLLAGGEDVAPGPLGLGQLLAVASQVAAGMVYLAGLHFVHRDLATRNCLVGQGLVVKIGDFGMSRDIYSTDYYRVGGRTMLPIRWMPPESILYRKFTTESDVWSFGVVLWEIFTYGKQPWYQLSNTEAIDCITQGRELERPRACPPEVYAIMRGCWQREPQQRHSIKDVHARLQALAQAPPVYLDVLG
Particulars: read-out: TrkA(h) kinase activity (human kinase inhibition data). The protocol: as §1, §2

T1 sequence (P08069 31-1367): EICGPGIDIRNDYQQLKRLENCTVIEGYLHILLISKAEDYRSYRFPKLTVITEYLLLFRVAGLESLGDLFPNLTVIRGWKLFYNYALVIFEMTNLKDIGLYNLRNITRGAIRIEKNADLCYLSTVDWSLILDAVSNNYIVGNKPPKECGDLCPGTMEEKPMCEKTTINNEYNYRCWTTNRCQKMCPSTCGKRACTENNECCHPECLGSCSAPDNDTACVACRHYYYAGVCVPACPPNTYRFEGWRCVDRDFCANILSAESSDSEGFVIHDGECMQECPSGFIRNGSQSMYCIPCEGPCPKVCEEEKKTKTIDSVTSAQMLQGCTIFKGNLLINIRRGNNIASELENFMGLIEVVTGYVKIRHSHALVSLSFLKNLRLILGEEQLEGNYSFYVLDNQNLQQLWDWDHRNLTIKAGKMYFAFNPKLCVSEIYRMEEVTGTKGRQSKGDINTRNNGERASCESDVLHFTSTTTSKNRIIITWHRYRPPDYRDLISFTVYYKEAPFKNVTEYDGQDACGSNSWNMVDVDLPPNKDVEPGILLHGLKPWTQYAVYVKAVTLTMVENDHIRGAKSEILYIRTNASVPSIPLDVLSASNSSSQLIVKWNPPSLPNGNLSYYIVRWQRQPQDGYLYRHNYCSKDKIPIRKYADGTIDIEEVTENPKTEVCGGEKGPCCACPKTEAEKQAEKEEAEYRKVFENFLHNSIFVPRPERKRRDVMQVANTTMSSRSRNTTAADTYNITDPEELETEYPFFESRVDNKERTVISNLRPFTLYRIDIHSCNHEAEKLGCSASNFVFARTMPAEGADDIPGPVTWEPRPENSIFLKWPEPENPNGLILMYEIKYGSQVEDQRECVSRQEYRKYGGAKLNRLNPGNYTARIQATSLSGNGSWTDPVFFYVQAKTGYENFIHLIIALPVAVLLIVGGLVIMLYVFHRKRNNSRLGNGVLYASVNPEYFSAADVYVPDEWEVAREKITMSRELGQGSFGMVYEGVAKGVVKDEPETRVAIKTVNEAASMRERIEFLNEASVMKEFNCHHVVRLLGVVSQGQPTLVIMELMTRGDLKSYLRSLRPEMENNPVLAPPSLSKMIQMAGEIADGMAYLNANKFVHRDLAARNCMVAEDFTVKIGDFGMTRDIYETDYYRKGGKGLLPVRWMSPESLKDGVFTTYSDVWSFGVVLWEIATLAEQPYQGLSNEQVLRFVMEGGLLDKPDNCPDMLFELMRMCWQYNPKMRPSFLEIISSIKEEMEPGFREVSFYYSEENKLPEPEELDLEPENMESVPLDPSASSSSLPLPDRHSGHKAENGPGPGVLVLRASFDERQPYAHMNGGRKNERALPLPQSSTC

On to `O=C(CCn1ncc2ccccc21)N1CCOC(c2ccc(Cc3ccc(F)cc3)cn2)C1` (stereo not shown) [compound 1, 1-(2-(5-(4-fluorobenzyl)pyridin-2-yl)morpholino)-3-(1H-indazol-1-yl)propan-1-one], for which the activity at 1 µM came out at 103% on IGF-1R(h) (compound at 1 μM); 101% on ATR/ATRIP(h) (compound at 1 μM); 90% at MAPKAP-K2(h) (compound at 1 μM, read-out: MAPKAP-K2(h) kinase activity (human kinase inhibition data)); 106% at TrkA(h) (compound at 1 μM). Further, the activity at 10 µM at IGF-1R(h) (compound at 10 μM) stood at 91%; at ATR/ATRIP(h) (compound at 10 μM) it was 91%; at MAPKAP-K2(h) (compound at 10 μM, read-out: MAPKAP-K2(h) kinase activity (human kinase inhibition data)), 77%; at TrkA(h) (compound at 10 μM), 123%. Further, the activity at 100 µM came to 61% on IGF-1R(h) (compound at 100 μM); 65% at ATR/ATRIP(h) (compound at 100 μM); 65% at MAPKAP-K2(h) (compound at 100 μM, read-out: MAPKAP-K2(h) kinase activity (human kinase inhibition data)); 41% at TrkA(h) (compound at 100 μM). In addition, the “MAPKAP-K2 inhibition, dose dependence” value at MAPKAP-K2(h) (1, 10 and 100 μM) is on record as “inhibited in a dose-dependent manner”.
